Data as given in patent US20100184815A1 (priority 2008, published 2010).
Read-outs that look alike come from different tables or passages of the source.

How the values were obtained:
[1] = Metabolism studies using human liver microsomal preparations; type: in vitro ADME; details: for HLMs t1/2 (min) / half-life: pooled human liver microsomes, with NADPH (CYP system active), 37° C.; for HLMs Predominant Enzyme: comparison of half life with and without NADPH: Esterase, CYP or Mixed; for half-life: pH 7.4, read-out: HLMs t1/2
Method: Compounds were incubated in pooled human liver microsomes (HLMs) in the presence or absence of an NADPH-generating system. NADPH is required for the activity of cytochrome P450 (CYP) and other oxidative enzymes present in HLMs, but not for esterase activity. An additional incubation was carried out in the absence of HLM to assess compound stability. The disappearance of parent and the appearance of the corresponding acid metabolite were monitored over the time course of the incubations using LC-MS/MS.
A stock solution (20 mM) of each proprietary compound in DMSO was prepared and store at −20° C. until needed. A working stock solution (0.2 mM) was prepared for each proprietary compound by adding an aliquot of the stock solution (10 μL) to acetonitrile (990 μL).
An aliquot of the HLM solution was removed from the −80° C. freezer and placed on ice. Tris Buffer (50 mM, pH 7.4) containing MgCl2 (hexahydrate, 5 mM) was pre-incubated in a 37° C. water bath. A set of Eppendorf microfuge tubes (1.5 mL) was appropriately labeled. To each tube was added Tris buffer with or without the NADPH generating system. An aliquot of pooled HLMs was added to all the incubations except those that were the buffer control.
Tubes were preincubated for 5 min in a shaking incubator bath (37° C., 900 rpm) and the reaction was initiated by adding an aliquot of the proprietary working solution (5 μL). The additions were timed carefully in order to coordinate the sample collections below. A small aliquot (50 μL) was removed at […] and delivered to the respective tubes containing dextrorphan (100 μL of 0.5 μg/mL solution) in dissolved in methanol or acetonitrile. The samples were centrifuged at 14000 g for 15 minutes at 4° C. The supernatant was transferred to clean labeled HPLC injection vials and stored at −80° C. until analyzed. An aliquot of the supernatant […] was added to water (75 μL), mixed and injected onto the LC-MS/MS system for analysis.
“HLM t1/2” represents the observed half life of the compound under conditions that included NADPH, i.e., the CYP system was active. Comparison to the half life of the test article under (−)NADPH conditions, the enzyme predominant ly responsible for the metabolism of the test article. […] Where roughly equal metabolism is seen by each enzyme system, “mixed” is noted in the “Predominant enzyme” column.

[2] = test system: pig liver esterase; assay: Metabolism studies using pig liver esterase; type: in vitro ADME; details: 37° C.
Method: The esterase-mediated metabolism of these compounds was studied using commercially available pig liver esterase in the presence and absence of human plasma proteins. The disappearance of parent was monitored over the time course of the incubations using a LC-UV detection system.
A stock solution and working stock solution was prepared for each proprietary compound as described for the human liver microsomal incubations. Working solutions of pig liver esterase in potassium phosphate buffer ([…], pH 7.4) and pig liver esterase in human plasma protein were prepared by dissolving pig liver esterase (2.51 mg) in the phosphate buffer or plasma protein solutions, respectively.
A set of three Eppendorf microfuge tubes (1.5 mL) was appropriately labeled. To each tube was added 1.5 mL of phosphate buffer, pig liver esterase in buffer, or pig liver esterase in human plasma protein solution. These solutions were pre-incubated (37° C., 900 rpm) and the reactions were initiated by adding an aliquot (37.5 μL) of the working solution of proprietary compound to each tube. An aliquot (100 μL) from each tube was removed at time 0, 5, 30, 60, and 120 min and added to a tube containing acetonitrile (200 μL) to stop the reaction.
The samples were centrifuged at 14000 g for 15 minutes at 4° C. The supernatant was transferred to clean labeled HPLC injection vials and stored at −80° C. until analyzed. An aliquot of the supernatant (25 μL) was injected onto the LC-UV system for analysis.
Half lives of a sample of test articles is noted in the following table. Half life was determined in the presence or absence of plasma.

[3] = molecular target: T1, Gal-4 hPPARα (Homo sapiens, UniProt Q07869); assay: Gal4-hPPARα transient transfection reporter assay in Cos cells; type: cell-based; details: luciferase reporter, 24 hours with compound, scale 1-5, read-out: Gal-4 hPPAR α EC50 (scaled number)
T1 construct: Plasmids pGal4-hPPARα, pGal4-hPPARγ, pGal4-hPPARδ and pG5-TK-pGL3 were constructed as previously described by Staels, Bart, et al., Nature 1998 Jun; 25
T1 sequence (Q07869 200-468 limits assumed): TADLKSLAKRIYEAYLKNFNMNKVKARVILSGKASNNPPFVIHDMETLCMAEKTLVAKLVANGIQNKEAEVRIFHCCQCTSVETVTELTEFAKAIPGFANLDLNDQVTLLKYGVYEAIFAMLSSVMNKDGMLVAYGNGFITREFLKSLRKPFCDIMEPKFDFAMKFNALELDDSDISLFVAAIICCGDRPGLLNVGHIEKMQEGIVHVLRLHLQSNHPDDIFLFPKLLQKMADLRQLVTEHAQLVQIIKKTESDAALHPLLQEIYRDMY
Procedure, shortened: (§1)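 Cos cells transiently co-transfected with Gal4-hPPAR expression plasmid, pG5-TK-pGL3 luciferase reporter and β-galactosidase control, then treated 24 h with increasing compound concentrations in DMEM containing 0.2% FCS. Luciferase normalised to β-galactosidase; EC50 from curve fit, at least three experiments.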

[4] = molecular target: T2, Gal-4 hPPARγ (Homo sapiens, UniProt P37231); assay: Gal4-hPPARγ transient transfection reporter assay in Cos cells; type: cell-based; details: luciferase reporter, 24 hours with compound, scale 1-5, read-out: Gal-4 hPPAR γ EC50 (scaled number)
T2 construct: Plasmids pGal4-hPPARα, pGal4-hPPARγ, pGal4-hPPARδ and pG5-TK-pGL3 were constructed as previously described by Staels, Bart, et al., Nature 1998 Jun; 25
T2 sequence (P37231 238-505 limits assumed): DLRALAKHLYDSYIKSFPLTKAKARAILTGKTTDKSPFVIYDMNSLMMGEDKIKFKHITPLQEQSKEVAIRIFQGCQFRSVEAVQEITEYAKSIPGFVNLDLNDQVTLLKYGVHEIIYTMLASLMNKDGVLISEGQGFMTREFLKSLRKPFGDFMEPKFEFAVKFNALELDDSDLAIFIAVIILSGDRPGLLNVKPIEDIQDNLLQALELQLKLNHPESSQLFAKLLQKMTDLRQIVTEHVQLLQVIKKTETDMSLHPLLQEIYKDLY
Procedure, shortened: as §1

[5] = molecular target: T3, Gal-4 hPPARβ/δ (Homo sapiens, UniProt Q03181); assay: Gal4-hPPARδ transient transfection reporter assay in Cos cells; type: cell-based; details: luciferase reporter, 24 hours with compound, scale 1-5, read-out: Gal-4 hPPAR β/δ EC50 (scaled number)
T3 construct: Plasmids pGal4-hPPARα, pGal4-hPPARγ, pGal4-hPPARδ and pG5-TK-pGL3 were constructed as previously described by Staels, Bart, et al., Nature 1998 Jun; 25
T3 sequence (Q03181 171-441 limits assumed): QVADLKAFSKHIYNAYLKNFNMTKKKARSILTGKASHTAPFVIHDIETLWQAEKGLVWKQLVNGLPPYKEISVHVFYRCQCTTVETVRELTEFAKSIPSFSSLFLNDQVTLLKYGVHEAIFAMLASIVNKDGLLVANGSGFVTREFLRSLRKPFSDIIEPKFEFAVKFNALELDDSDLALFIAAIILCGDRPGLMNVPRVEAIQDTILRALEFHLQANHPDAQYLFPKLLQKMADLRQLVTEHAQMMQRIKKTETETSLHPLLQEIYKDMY
Procedure, shortened: as §1

[6] = pig liver esterase in human plasma protein solution
[7] = pig liver esterase in phosphate buffer pH 7.4, no plasma, read-out: Pig Liver Esterase (t1/2 min.) (−) Plasma
[8] = pig liver esterase in human plasma protein solution, read-out: Pig Liver Esterase (t1/2 min.) (+) Plasma

| Compound | HLMs t1/2 (min) [1] | Pig Liver Esterase (t1/2 min.) (+) Plasma [2, 6] | half-life at 4.9 µM [2, 7] | HLMs Predominant Enzyme [1] | half-life [1] | half-life at 4.9 µM [2, 8] | EC50 [3] | EC50 [4] | EC50 [5] |
| --- | --- | --- | --- | --- | --- | --- | --- | --- | --- |
| CCCCCCCCn1c(COC(=O)Cc2ccc(OC(C)(C)C(=O)O)cc2)nn(Cc2ccc(C)cc2)c1=O [Compound 012, 2-methyl-2-(4-(2-((1-(4-methylbenzyl)-4-octyl-5-oxo-4,5-dihydro-1H-1,2,4-triazol-3-yl)methoxy)-2-oxoethyl)phenoxy)propanoic acid] | Stable | Stable | 12 min |  |  |  |  |  |  |
| CCCCCCn1c(COC(=O)Cc2ccc(OC(C)(C)C(=O)O)cc2)nn(Cc2ccc(C)cc2)c1=O [Compound 014, 2-(4-(2-((4-hexyl-1-(4-methylbenzyl)-5-oxo-4,5-dihydro-1H-1,2,4-triazol-3-yl)methoxy)-2-oxoethyl)phenoxy)-2-methylpropanoic acid] | Stable | Stable | 19 min |  |  |  |  |  |  |
| CCCn1nc(Cc2ccc(C)cc2)cc1COC(=O)c1ccc(OC(C)(C)C(=O)O)cc1 [Compound 54, 4-(1-Carboxy-1-methyl-ethoxy)-benzoic acid 5-(4-methyl-benzyl)-2-propyl-2H-pyrazol-3-ylmethyl ester] |  |  | 3 min | Esterase | 30 min | > 120 min |  |  |  |
| CCCn1nc(Cc2ccc(C)cc2)cc1COC(=O)c1ccc(SC(C)(C)C(=O)O)cc1 [Compound 55, 4-(1-Carboxy-1-methyl-ethylsulfanyl)-benzoic acid 5-(4-methyl-benzyl)-2-propyl-2H-pyrazol-3-ylmethyl ester] |  |  | < 1 min | Esterase | 5 min | 16 min |  |  |  |
| CC(C)c1ccc(-n2nncc2COC(=O)c2ccc(SC(C)(C)C(=O)O)cc2)cc1 [Compound 59, 2-(4-(((1-(4-isopropylphenyl)-1H-1,2,3-triazol-5-yl)methoxy)carbonyl)phenylthio)-2-methylpropanoic acid] |  |  | 15 min | Esterase | 30 min | 44 min |  |  |  |
| Cc1ccc(Cn2nncc2COC(=O)c2ccc(OC(C)(C)C(=O)O)cc2)cc1 [Compound 63, 2-methyl-2-(4-(((1-(4-methylbenzyl)-1H-1,2,3-triazol-5-yl)methoxy)carbonyl)phenoxy)propanoic acid] | Stable | Stable | 120 min | Stable |  |  |  |  |  |
| C[C@@H](OC(=O)c1ccc(SC(C)(C)C(=O)O)cc1)c1cn(Cc2ccc(C(F)(F)F)cc2)nn1 [Compound 95, (R)-2-methyl-2-(4-((1-(1-(4-(trifluoromethyl)benzyl)-1H-1,2,3-triazol-4-yl)ethoxy)carbonyl)phenylthio)propanoic acid] | Stable |  | 68 min |  |  | > 120 min | 1 to 50 nM | > 1000 nM | > 1000 nM |
| C[C@@H](Cc1cn(Cc2ccc(C(C)(C)C)cc2)nn1)OC(=O)c1ccc(SC(C)(C)C(=O)O)cc1 [Compound 133, 4-(1-Carboxy-1-methyl-ethylsulfanyl)-benzoic acid (S)-2-[1-(4-tert-butyl-benzyl)-1H-1,2,3-triazol-4-yl]-1-methyl-ethyl ester] |  |  |  | Mixed | 29 min |  | 1 to 50 nM | > 1000 nM | > 1000 nM |
| C[C@@H](Cc1cn(Cc2ccc(C(F)(F)F)cc2)nn1)OC(=O)c1ccc(SC(C)(C)C(=O)O)cc1 [Compound 147, 4-(1-Carboxy-1-methyl-ethylsulfanyl)-benzoic acid (S)-1-methyl-2-[1-(4-trifluoromethyl-benzyl)-1H-1,2,3-triazol-4-yl]-ethyl ester] |  | Stable | 77 min | Mixed | 73 min |  |  |  |  |
| CCCn1c(COC(=O)c2ccc(OC(C)(C)C(=O)O)cc2)nn(Cc2ccc(C(=O)O[C@H](C)C(F)(F)C(F)(F)F)cc2)c1=O [Compound 174, (R)-2-methyl-2-(4-(((5-oxo-1-(4-((3,3,4,4,4-pentafluorobutan-2-yloxy)carbonyl)benzyl)-4-propyl-4,5-dihydro-1H-1,2,4-triazol-3-yl)methoxy)carbonyl)phenoxy)propanoic acid] |  |  | < 5 min | Esterase | 10 min | 17 min |  |  |  |
| CCCn1c(C(C)OC(=O)c2ccc(SC(C)(C)C(=O)O)cc2)nn(Cc2ccc(C)cc2)c1=O (centres unmarked) [Compound 199, 2-methyl-2-(4-((1-(1-(4-methylbenzyl)-5-oxo-4-propyl-4,5-dihydro-1H-1,2,4-triazol-3-yl)ethoxy)carbonyl)phenylthio)propanoic acid] | Stable |  | > 120 min |  |  | > 120 min | 1 to 50 nM | > 1000 nM | > 1000 nM |
